Data taken from US8796256B2 (Janssen Pharmaceutica NV, priority 2010, dated 2014).
pEC50: −log10 of the molar value. Like-named read-outs stand apart in the source and are kept apart here.

Tests used:
Zucker fa/fa male rats = assay: Zucker fa/fa Rat Model Assay; format: in vivo; conditions: po, 120 h, 10 mg/kg orally once a day for 4 days
Text: Zucker fa/fa is a monogenic model of frank diabetes due to a mutation on the fa gene truncating the leptin receptor and preventing its interaction with its peptide hormone. This mutation results in a hyperphagic phenotype and the rodent develops obesity, hyperlipidemia, fasting hyperglycemia and insulin resistance. Zucker fa/fa male rats were received at four weeks of age and allowed to acclimate for one week. At five weeks of age the animals were single housed in cages in a temperature-controlled room with 12-hour light/dark cycle. The rats were allowed ad libitum access to water and food and throughout the study were maintained on a Purina 5008 diet. Animals were sorted based primarily on fed insulin levels and circulating triglycerides. Animals were dosed orally once a day (10 mg/kg) in the morning for 4 days. The vehicle used was either 20% HPβCD (Hydroxypropyl Beta Cyclodextrin) or 15% Vitamin E/30% PEG-400 (Polyethylene Glycol 400). Fed insulin and triglycerides were measured using blood collected from the tail vein at day 5. Serum plasma samples were prepared by centrifugation in EDTA (Ethylenediaminetetraacetic acid) containing tubes, transferred into 96 well plates and stored at −80° C.

[1] = molecular target: T1, ERR1 (also known as ERR-α or ERR-1) (Homo sapiens, UniProt P11474); assay: TR-FRET assay (disruption of co-activator peptide binding to ERR1 LBD); format: biochemical; conditions: 6 nM 6His-ERR1LBD, 6 nM GST-SRC-2 peptide; average of 3 independent experiments
T1 sequence (P11474 193-421 limits assumed): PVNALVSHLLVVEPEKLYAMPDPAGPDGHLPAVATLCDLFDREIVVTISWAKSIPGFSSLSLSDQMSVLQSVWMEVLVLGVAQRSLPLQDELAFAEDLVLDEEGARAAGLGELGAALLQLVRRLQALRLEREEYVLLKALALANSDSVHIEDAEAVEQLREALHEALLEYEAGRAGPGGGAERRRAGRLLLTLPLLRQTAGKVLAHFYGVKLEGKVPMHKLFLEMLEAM
How it was run: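 Homogeneous TR-FRET measuring displacement of GST-hSRC2 co-activator peptide (6 nM) from His-tagged ERR1 LBD (6 nM), detected with α-GST Eu cryptate (30 nM) and α-His-XL665 (7.5 nM). Buffer 25 mM Tris pH 8, 2.5 mM Hepes, 20 mM KCl, 1 mM DTT, 0.05 mg/mL delipidated BSA; equilibration 4-18 h at 25° C. Hyperbolic dose-response fit, mean of 3 experiments.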

[2] = blood from tail vein at day 5, read-out: % Change Fed Insulin Levels
[3] = blood from tail vein at day 5, read-out: % Change Fed Triglyceride Levels

SMILES	change in vivo at 10 mg/kg (Zucker fa/fa male rats; [2])	change in vivo at 10 mg/kg (Zucker fa/fa male rats; [3])	pEC50 [1]
CN1CC[C@@H](N2C(=O)S/C(=C\c3ccc4c(cnn4Cc4ccc(Cl)cc4C(F)(F)F)c3)C2=O)[C@H](F)C1 (relative stereo) [Compound 277, (5Z)-5-({1-[4-Chloro-2-(trifluoromethyl)benzyl]-1H-indazol-5-yl}methylidene)-3-(trans-3-fluoro-1-methylpiperidin-4-yl)-1,3-thiazolidine-2,4-dione]	-73%	-57%	7.24
O=C(O)CN1C(=O)S/C(=C\c2ccc3c(cnn3Cc3ccc(Cl)cc3C(F)(F)F)c2)C1=O [Compound 4, (5Z)-5-{[1-(4-Chloro-2-trifluoromethylbenzyl)-1H-indazol-5-yl]methylidene}-2,4-dioxothiazolidin-3-ylacetic acid]	-50%	-14%	8.05
COc1ccc(Cn2ncc3cc(/C=C4\SC(=O)N(CCN5CCOCC5)C4=O)ccc32)c(C(F)(F)F)c1 [Compound 8, (5Z)-5-[(1-{[4-(Methyloxy)-2-(trifluoromethyl)phenyl]methyl}-1H-indazol-5-yl)methylidene]-3-(2-morpholin-4-ylethyl)-1,3-thiazolidine-2,4-dione]	-21%	-19%	8.10
COc1ccc(Cn2ncc3cc(/C=C4\SC(=O)N(CC(=O)O)C4=O)ccc32)c(C(F)(F)F)c1 [Compound 19, [(5Z)-5-({1-[4-Methoxy-2-(trifluoromethyl)benzyl]-1H-indazol-5-yl}methylidene)-2,4-dioxo-1,3-thiazolidin-3-yl]acetic acid]	-9%	21%	8.05
COc1ccc(Cn2ncc3cc(/C=C4\SC(=O)N(C5CCC(C(=O)O)CC5)C4=O)ccc32)c(C(F)(F)F)c1 (stereo not shown) [Compound 22, 4-[(5Z)-5-({1-[4-Methoxy-2-(trifluoromethyl)benzyl]-1H-indazol-5-yl}methylidene)-2,4-dioxo-1,3-thiazolidin-3-yl)cyclohexanecarboxylic acid]	-11%	32%	8.10
COc1nn(Cc2ccc(Cl)cc2C(F)(F)F)c2ccc(/C=C3\SC(=O)N(CCN4CCCC4)C3=O)cc12 [Compound 27, (5Z)-5-({1-[4-Chloro-2-(trifluoromethyl)benzyl]-3-methoxy-1H-indazol-5-yl}methylidene)-3-(2-pyrrolidin-1-ylethyl)-1,3-thiazolidine-2,4-dione]	9%	0%	7.57
NS(=O)(=O)NC(=O)CN1C(=O)S/C(=C\c2ccc3c(cnn3Cc3ccc(Cl)cc3C(F)(F)F)c2)C1=O [Compound 31, 2-[(5Z)-5-({1-[4-Chloro-2-(trifluoromethyl)benzyl]-1H-indazol-5-yl}methylidene)-2,4-dioxo-1,3-thiazolidin-3-yl]-N-sulfamoylacetamide]	-51%	-14%	7.72
CN(C)S(=O)(=O)NC(=O)CN1C(=O)S/C(=C\c2ccc3c(cnn3Cc3ccc(Cl)cc3C(F)(F)F)c2)C1=O [Compound 35, 2-[(5Z)-5-({1-[4-Chloro-2-(trifluoromethyl)benzyl]-1H-indazol-5-yl}methylidene)-2,4-dioxo-1,3-thiazolidin-3-yl]-N-(dimethylsulfamoyl) acetamide]	-29%	-46%	7.64
Cc1nn(Cc2ccc(Cl)cc2C(F)(F)F)c2ccc(/C=C3\SC(=O)N(CC(=O)O)C3=O)cc12 [Compound 36, [(5Z)-5-({1-[4-Chloro-2-(trifluoromethyl)benzyl]-3-methyl-1H-indazol-5-yl}methylidene)-2,4-dioxo-1,3-thiazolidin-3-yl]acetic acid]	-18%	-4%	7.55
O=C(CN1C(=O)S/C(=C\c2ccc3c(cnn3Cc3ccc(Cl)cc3C(F)(F)F)c2)C1=O)NS(=O)(=O)N1CCCC1 [Compound 38, 2-[(5Z)-5-({1-[4-Chloro-2-(trifluoromethyl)benzyl]-1H-indazol-5-yl}methylidene)-2,4-dioxo-1,3-thiazolidin-3-yl]-N-(pyrrolidin-1-ylsulfonyl)acetamide]	-47%	1%	7.60
Cc1nn(Cc2ccc(Cl)cc2C(F)(F)F)c2ccc(/C=C3\SC(=O)N(CC(=O)NS(=O)(=O)N4CCCC4)C3=O)cc12 [Compound 40, 2-[(5Z)-5-({1-[4-Chloro-2-(trifluoromethyl)benzyl]-3-methyl-1H-indazol-5-yl}methylidene)-2,4-dioxo-1,3-thiazolidin-3-yl]-N-(pyrrolidin-1-ylsulfonyl)acetamide]	-10%	-23%	7.27
O=C(O)CN1C(=O)S/C(=C\c2ccc3c(cnn3Cc3ccc(C(F)(F)F)cc3C(F)(F)F)c2)C1=O [Compound 59, [(5Z)-5-({1-[2,4-Bis(trifluoromethyl)benzyl]-1H-indazol-5-yl}methylidene)-2,4-dioxo-1,3-thiazolidin-3-yl]acetic acid]	-23%	-25%	7.59
O=C1S/C(=C\c2ccc3c(cnn3Cc3ccc(Cl)cc3C(F)(F)F)c2)C(=O)N1Cc1nn[nH]n1 [Compound 72, (5Z)-5-({1-[4-Chloro-2-(trifluoromethyl)benzyl]-1H-indazol-5-yl}methylidene)-3-(2H-tetrazol-5-ylmethyl)-1,3-thiazolidine-2,4-dione]	-44%	-51%	7.89
O=C(O)C1CCC(N2C(=O)S/C(=C\c3ccc4c(cnn4Cc4ccc(Cl)cc4C(F)(F)F)c3)C2=O)CC1 (stereo not shown) [Compound 73, 4-[(5Z)-5-({1-[4-Chloro-2-(trifluoromethyl)benzyl]-1H-indazol-5-yl}methylidene)-2,4-dioxo-1,3-thiazolidin-3-yl]cyclohexanecarboxylic acid]	-30%	-19%	7.92
O=C1CN(CCN2C(=O)S/C(=C\c3ccc4c(cnn4Cc4ccc(Cl)cc4C(F)(F)F)c3)C2=O)CCN1 [Compound 79, (5Z)-5-({1-[4-Chloro-2-(trifluoromethyl)benzyl]-1H-indazol-5-yl}methylidene)-3-[2-(3-oxopiperazin-1-yl)ethyl]-1,3-thiazolidine-2,4-dione]	-20%	34%	7.52
N=C(N)NOCCN1C(=O)S/C(=C\c2ccc3c(cnn3Cc3ccc(Cl)cc3C(F)(F)F)c2)C1=O [Compound 91, 1-{2-[(5Z)-5-({1-[4-Chloro-2-(trifluoromethyl)benzyl]-1H-indazol-5-yl}methylidene)-2,4-dioxo-1,3-thiazolidin-3-yl]ethoxy}guanidine]	-68%	-60%	7.24
O=C1S/C(=C\c2ccc3c(cnn3Cc3ccc(Cl)cc3C(F)(F)F)c2)C(=O)N1CCN1CCCC1 [Compound 111, (5Z)-5-({1-[4-Chloro-2-(trifluoromethyl)benzyl]-1H-indazol-5-yl}methylidene)-3-(2-pyrrolidin-1-ylethyl)-1,3-thiazolidine-2,4-dione]	-49%	-30%	7.77
CN1CCC[C@H]1CN1C(=O)S/C(=C\c2ccc3c(cnn3Cc3ccc(Cl)cc3C(F)(F)F)c2)C1=O [Compound 121, (5Z)-5-({1-[4-Chloro-2-(trifluoromethyl)benzyl]-1H-indazol-5-yl}methylidene)-3-{[(2S)-1-methylpyrrolidin-2-yl]methyl}-1,3-thiazolidine-2,4-dione]	-59%	-37%	8.30
CS(=O)(=O)NC(=O)CN1C(=O)S/C(=C\c2ccc3c(cnn3Cc3ccc(Cl)cc3C(F)(F)F)c2)C1=O [Compound 126, 2-[(5Z)-5-({1-[4-Chloro-2-(trifluoromethyl)benzyl]-1H-indazol-5-yl}methylidene)-2,4-dioxo-1,3-thiazolidin-3-yl]-N-(methylsulfonyl)acetamide]	-14%	13%	7.74
O=C(O)c1ccc(S(=O)(=O)NCCN2C(=O)S/C(=C\c3ccc4c(cnn4Cc4ccc(Cl)cc4C(F)(F)F)c3)C2=O)o1 [Compound 421, 5-({2-[(5Z)-5-({1-[4-Chloro-2-(trifluoromethyl)benzyl]-1H-indazol-5-yl}methylidene)-2,4-dioxo-1,3-thiazolidin-3-yl]ethyl}sulfamoyl)furan-2-carboxylic acid]	–	–	7.47
